Series [1] deals with human serotonin 5-HT6 receptor (Homo sapiens, UniProt P50406). In words: [3H]LSD binding assay for cloned 5-HT6 receptors.
Sequence of human serotonin 5-HT6 receptor (P50406 whole entry): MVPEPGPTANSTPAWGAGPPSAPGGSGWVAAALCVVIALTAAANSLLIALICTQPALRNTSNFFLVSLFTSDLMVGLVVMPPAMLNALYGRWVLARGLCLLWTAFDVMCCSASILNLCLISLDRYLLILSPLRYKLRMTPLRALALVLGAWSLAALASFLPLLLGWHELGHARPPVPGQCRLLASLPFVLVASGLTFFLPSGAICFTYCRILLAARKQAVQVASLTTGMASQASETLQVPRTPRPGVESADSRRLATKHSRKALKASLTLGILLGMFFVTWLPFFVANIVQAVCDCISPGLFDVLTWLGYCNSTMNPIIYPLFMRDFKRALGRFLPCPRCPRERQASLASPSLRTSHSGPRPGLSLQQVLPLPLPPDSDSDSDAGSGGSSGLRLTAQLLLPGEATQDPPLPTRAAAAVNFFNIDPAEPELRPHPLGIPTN

The molecule `Cc1ccc(Cn2c(=O)c3c(N4CCN(C)CC4)cc(Cl)cc3n(Cc3ccccc3)c2=O)cc1C` [Example 39, 1-benzyl-7-chloro-3-(3,4-dimethyl-benzyl)-5-(4-methyl-piperazin-1-yl)-1H-quinazoline-2,4-dione] showed a melting point of 96 to 99 °C. For the same molecule, the IC50 in series [1] came out at 5.1 nM.

A word on the IC50: it is the midpoint of a concentration-inhibition curve. A high value points to weaker potency in that assay. As usually defined, the melting point is the temperature of the solid-liquid transition.

(Values after US20090203708A1, “NOVEL SUBSTITUTED-1-H-QUINAZOLINE-2,4-DIONE DERIVATIVES, PREPARATION METHOD THEREOF AND PHARMACEUTICAL COMPOSITION CONTAINING THE SAME” (Korea Research Institute of Chemical Technology, priority 2006, published 2009).)
